Source: US20250066835A1 (priority 2021, published 2025)

How the values were obtained:
Assay type in all cases: cell-based
[1] = test system: Pseudomonas aeruginosa strain; assay: Electronic staining with PTA aqueous solution and SEM observation after antibacterial agent treatment (FIG. 6); settings: cultured at 37°C for 30 minutes, 10% PTA aqueous solution, 5 kV backscattered electron image
Description: As an example, in FIG. 6, a Pseudomonas aeruginosa strain is used as a material, bacteria in a control group not treated with the antibacterial agent and bacteria in a test group treated with antibacterial agent colistin are cultured at 37° C. for 30 minutes, the bacteria are collected on a track-etched membrane and fixed with glutaraldehyde of 2.5%, a specimen is prepared by performing electronic staining for 2 minutes by using a PTA aqueous solution having weight concentration of 10% as a stain and a platinum blue aqueous solution as a comparison, and a backscattered electron image is obtained by SEM observation at an acceleration voltage of 5 kV.
In the specimen stained with the PTA aqueous solution, an image of bacteria having low image brightness is observed in the control group, and an image of bacteria having high image brightness is observed in the test group. On the other hand, in the specimen stained with the platinum blue aqueous solution, the image brightness of the bacteria in both the control group and the test group is high, and no significant difference is observed between the control group and the test group.

[2] = test system: colistin-resistant Pseudomonas aeruginosa strain; assay: PTA staining / SEM backscattered electron image analysis of colistin-treated bacteria over time; settings: colistin 2 mg/L, 37°C, after 60 minutes
Description: (§1) A Pseudomonas aeruginosa strain whose colistin sensitivity is known from an MIC value measured by a method of related art and a Pseudomonas aeruginosa strain whose colistin resistance is known are used. A bacterial solution suspended in a medium at initial concentration of 10^6/ml is treated with colistin of 2 mg/L, which is concentration that distinguishes between sensitive bacteria and resistant bacteria by the method of related art, is treated and cultured at 37° C., and a certain amount of the bacterial solution is sampled over time.
A polycarbonate track-etched membrane having a hole diameter of 0.2 μm is used as specimen equipment for the SEM observation of bacteria, and bacteria are uniformly collected in a certain area on the membrane. Conductivity is given to the specimen by pre-vaporizing platinum-palladium on a surface of the membrane. […]
(§2) Next, SEM observation is performed on each specimen from which the series of backscattered electron image (701) is obtained and a specimen in the control group prepared at the same timing, and twenty-five images per specimen and images of 300 to 500 bacterial cells are acquired. The number of images taken and the number of bacterial cells to be imaged are not limited to the above-described number as long as reproducibility of quantitative analysis can be ensured. […]

[3] = test system: colistin-sensitive Pseudomonas aeruginosa strain; assay: PTA staining / SEM backscattered electron image analysis of colistin-treated bacteria over time (FIG. 7); settings: colistin 2 mg/L, 37°C, initial concentration 10^6/ml
Description: as §1
A polycarbonate track-etched membrane having a hole diameter of 0.2 μm is used as specimen equipment for the SEM observation of bacteria, and bacteria are uniformly collected in a certain area on the membrane. Conductivity is given to the specimen by pre-vaporizing platinum-palladium on a surface of the membrane.
After washing a medium component on a bacterial collection surface with physiological saline, bacteria are treated and fixed for 5 minutes with a glutaraldehyde fixing solution of 2.5% having a protein cross-linking effect in order to prevent the morphological change of the bacteria. After washing the excess fixing solution with water, the bacteria are treated with the PTA aqueous solution having the weight concentration of 10% for 2 minutes and stained. After washing the excess stain with water, the bacteria are dried on the track-etched membrane to form a specimen for the SEM observation.
SEM observation conditions are set to an acceleration voltage of 5 kV, backscattered electron detection, and magnification of 7,000 times. […]
as §2

colistin
PTA staining intensity / image brightness of treated bacteria [1]: strong PTA staining
ratio of the microbe 1 (corresponds to viability) [2]: about 95%
ratio of the microbe 1 (corresponds to viability) ([3]; after 8 minutes): 80%
ratio of the microbe 1 (corresponds to viability) ([3]; after 30 minutes): 60%
ratio of the microbe 1 (corresponds to viability) ([3]; after 60 minutes): 0%
